The source of these data is patent US20230192720A1, “MACROCYCLIC COMPOUNDS” (ZENO MANAGEMENT, INC., priority 2019, published 2023).

What is called pIC50 is −log10 of the IC50, conventionally taken in molar units. Higher therefore signals a small IC50.

pIC50: −log10 of the molar value.

The test system of one assay is NCI-H929 cells. Description: NCI-H929 cell proliferation assay (CellTiter-Glo). It counts as cell-based. Conditions: 72 h compound treatment. Here is the method:
NCI-H929 Cell Proliferation Assay
Cell proliferation was measured using the CellTiter-Glo® Luminescent Cell Viability Assay. The assay involved the addition of a single reagent (CellTiter-Glo® Reagent) directly to cells cultured in serum-supplemented medium. NCI-H929 (ATCC CRL-9068) cells were cultured according to ATCC recommendations and were seeded at 3,000 cells per well.
Each compound evaluated was prepared as a DMSO stock solution (10 mM). Compounds were tested in duplicate on each plate, with a 10-point serial dilution curve (1:3 dilution). Compound treatment ([…]) was added from the compound dilution plate to the cell plate. The highest compound concentration was 10 μM (final), with a 0.1% final DMSO concentration. Plates were then incubated at 37° C., 5% CO2. After 72 h of compound treatment, cell plates were equilibrated at rt for approximately 30 mins. An equi-volume amount of CellTiter-Glo® Reagent (40 μL) was added to each well. Plates were mixed for 2 mins on an orbital shaker to induce cell lysis and then incubated at rt for 10 mins to stabilize the luminescent signal. Luminescence was recorded using an Envision plate reader according to CellTiter-Glo protocol. IC50 of each compound was calculated using GraphPad Prism by nonlinear regression analysis.
For orientation: Cellular ATP, detected with luciferase, serves as a proxy for viable cell number.
As to `CN1Cc2cc(n(C)n2)CCc2cc3c(c(c2)OCCCc2c(C(=O)O)n(C)c4c(c(Cl)ccc24)-c2c(nn4c2CCCC4)C1)NCCC3` (atropisomer, axis not shown; (Ra)) [Example 6A, (Ra)-(+)-(Z)-1^6-Chloro-1^1,6^1,4-trimethyl-2^4,2^5,2^6,2^7,9^1,9^2,9^3,9^4-octahydro-1^1H,6^1H-10-oxa-4-aza-9(6,8)-quinolina-2(3,2)-pyrazolo[1,5-a]pyridina-1(7,3)-indola-6(3,5)-pyrazolacyclotridecaphane-1^2-carboxylic acid], the pIC50 was no less than 7.00.

The molecule `Cc1nn(C23CC(C2)C3)c2c1-c1c(Cl)ccc3c(c(C(=O)O)n(C)c13)CCCOc1cc(cc3c1NCCC3)SCc1cc(nn1C)CSC2` (atropisomer, axis not shown; (Sa)) [Example 9B, (Sa)-(−)-(Z)-2^1-(Bicyclo[1.1.1]pentan-1-yl)-1^6-chloro-1^1,2^3,6^1-trimethyl-9^1,9^2,9^3,9^4-tetrahydro-1^1H,2^1H,6^1H-10-oxa-4,8-dithia-9(6,8)-quinolina-1(7,3)-indola-2(4,5),6(3,5)-dipyrazolacyclotridecaphane-1^2-carboxylic acid] showed a pIC50 of no less than 7.00.

`CN1Cc2cc(n(C)n2)CSc2cc3c(c(c2)OCCCc2c(C(=O)O)n(C)c4c(c(Cl)ccc24)-c2c(nn4c2CCC4)C1)NCCC3` (atropisomer, axis not shown; (Sa)) [Example 3B, (Sa)-(−)-(Z)-1^6-Chloro-1^1,6^1,4-trimethyl-2^5,2^6,9^1,9^2,9^3,9^4-hexahydro-1^1H,2^4H,6^1H-10-oxa-8-thia-4-aza-9(6,8)-quinolina-1(7,3)-indola-2(3,2)-pyrrolo[1,2-b]pyrazola-6(3,5)-pyrazolacyclotridecaphane-1^2-carboxylic acid] showed a pIC50 of no less than 7.00.

`Cn1nc2cc1CSc1cc3c(c(c1)OCCCc1c(C(=O)O)n(C)c4c(c(F)ccc14)-c1c(nn4c1CCCC4)CSC2)NCCC3` (atropisomer, axis not shown; (Sa)) [Example 8B, (Sa)-(−)-(Z)-1^6-Fluoro-1^1,6^1-dimethyl-2^4,2^5,2^6,2^7,9^1,9^2,9^3,9^4-octahydro-1^1H,6^1H-10-oxa-4,8-dithia-9(6, 8)-quinolina-2(3,2)-pyrazolo[1,5-a]pyridina-1(7,3)-indola-6(3,5)-pyrazolacyclotridecaphane-1^2-carboxylic acid] had a pIC50 of 6.00 to 7.00.

As to `Cc1nn(C23CC(C2)C3)c2c1-c1c(F)ccc3c(c(C(=O)O)n(C)c13)CCCOc1cc(cc3c1NCCC3)SCc1cc(nn1C)CSC2` (atropisomer, axis not shown; (Sa)) [Example 10B, (Sa)-(−)-(Z)-2^1-(Bicyclo[1.1.1]pentan-1-yl)-1^6-fluoro-1^1,2^3,6^1-trimethyl-9^1,9^2,9^3,9^4-tetrahydro-1^1H,2^1H,6^1H-10-oxa-4,8-dithia-9(6,8)-quinolina-1(7,3)-indola-2(4,5),6(3,5)-dipyrazolacyclotridecaphane-1^2-carboxylic acid], the pIC50 is no less than 7.00.

`Cc1nn(C23CC(C2)C3)c2c1-c1c(F)ccc3c(c(C(=O)O)n(C)c13)CCCOc1cc(cc3c1NCCC3)SCc1cc(nn1C)CSC2` (atropisomer, axis not shown; (Ra)) [Example 10A, (Ra)-(+)-(Z)-2^1-(Bicyclo[1.1.1]pentan-1-yl)-1^6-fluoro-1^1,2^3,6^1-trimethyl-9^1,9^2,9^3,9^4-tetrahydro-1^1H,2^1H,6^1H-10-oxa-4,8-dithia-9(6,8)-quinolina-1(7,3)-indola-2(4,5),6(3,5)-dipyrazolacyclotridecaphane-1^2-carboxylic acid] showed a pIC50 of no more than 6.00.

For the molecule `Cn1nc2cc1CSc1cc3c(c(c1)OCCCc1c(C(=O)O)n(C)c4c(c(Cl)ccc14)-c1c(nn4c1CCCC4)CNC2)NCCC3` (atropisomer, axis not shown; (Ra)) [Example 12A, (Ra)-(+)-(Z)-1^6-Chloro-1^1,6^1-dimethyl-2^4,2^5,2^6,2^7,9^1,9^2,9^3,9^4-octahydro-1^1H,6^1H-10-oxa-8-thia-4-aza-9(6,8)-quinolina-2(3,2)-pyrazolo[1,5-a]pyridina-1(7,3)-indola-6(3,5)-pyrazolacyclotridecaphane-1^2-carboxylic acid], the pIC50 is no more than 6.00.

`CN1Cc2cc(n(C)n2)CCc2cc3c(c(c2)OCCCc2c(C(=O)O)n(C)c4c(c(Cl)ccc24)-c2c(nn4c2CCC4)C1)NCCC3` (atropisomer, axis not shown; (Sa)) [Example 5B, (Sa)-(−)-(Z)-1^6-Chloro-1^1,6^1,4-trimethyl-2^5,2^6,9^1,9^2,9^3,9^4-hexahydro-1^1H,2^4H,6^1H-10-oxa-4-aza-9(6,8)-quinolina-1(7,3)-indola-2(3,2)-pyrrolo[1,2-b]pyrazola-6(3,5)-pyrazolacyclotridecaphane-1^2-carboxylic acid] had a pIC50 of no more than 6.00.

On to `Cn1nc2cc1CSc1cc3c(c(c1)OCCCc1c(C(=O)O)n(C)c4c(c(Cl)ccc14)-c1c(nn4c1CCCC4)CNC2)NCCC3` (atropisomer, axis not shown) [Example 12B, (Sa)-(−)-(Z)-1^6-Chloro-1^1,6^1-dimethyl-2^4,2^5,2^6,2^7,9^1,9^2,9^3,9^4-octahydro-1^1H,6^1H-10-oxa-8-thia-4-aza-9(6,8)-quinolina-2(3,2)-pyrazolo[1,5-a]pyridina-1(7,3)-indola-6(3,5)-pyrazolacyclotridecaphane-1^2-carboxylic acid], for which the pIC50 is 6.00 to 7.00.

`CN1Cc2cc(n(C)n2)CCc2cc3c(c(c2)OCCCc2c(C(=O)O)n(C)c4c(c(Cl)ccc24)-c2c(nn4c2CCCC4)C1)NCCC3` (atropisomer, axis not shown; (Sa)) [Example 6B, (Sa)-(−)-(Z)-1^6-Chloro-1^1,6^1,4-trimethyl-2^4,2^5,2^6,2^7,9^1,9^2,9^3,9^4-octahydro-1^1H,6^1H-10-oxa-4-aza-9(6,8)-quinolina-2(3,2)-pyrazolo[1,5-a]pyridina-1(7,3)-indola-6(3,5)-pyrazolacyclotridecaphane-1^2-carboxylic acid]: the pIC50 was no more than 6.00.

The molecule `Cn1nc2cc1CSc1cc3c(c(c1)OCCCc1c(C(=O)O)n(C)c4c(c(F)ccc14)-c1c(nn4c1CCCC4)CSC2)NCCC3` (atropisomer, axis not shown; (Ra)) [Example 8A, (Ra)-(+)-(Z)-1^6-Fluoro-1^1,6^1-dimethyl-2^4,2^5,2^6,2^7,9^1,9^2,9^3,9^4-octahydro-1^1H,6 ^1H-10-oxa-4,8-dithia-9(6, 8)-quinolina-2(3,2)-pyrazolo[1,5-a]pyridina-1(7,3)-indola-6(3,5)-pyrazolacyclotridecaphane-1^2-carboxylic acid] had a pIC50 of no more than 6.00.

Staying with this assay, now noted: Homo sapiens, NCI-H929, 72 h, 72 h compound treatment.
The molecule `Cn1nc2cc1CSc1cc3c(c(c1)OCCCc1c(C(=O)O)n(C)c4c(c(Cl)ccc14)-c1c(nn4c1CCCC4)CSC2)NCCC3` (atropisomer, axis not shown; (Sa)) [Example 2B, (Sa)-(−)-(Z)-1^6-Chloro-1^1,6^1-dimethyl-2^4,2^5,2^6,2^7,9^1,9^2,9^3,9^4-octahydro-1^1H,6^1H-10-oxa-4,8-dithia-9(6,8)-quinolina-2(3,2)-pyrazolo[1,5-a]pyridina-1(7,3)-indola-6(3,5)-pyrazolacyclotridecaphane-1^2-carboxylic acid] gave a pIC50 of no more than 6.00.
